The values below come from patent publication US9931335B2, “Desethylhydroxychloroquine for the treatment of diseases associated with inflammation” (The Board of Trustees of the Leland Stanford Junior …, priority 2013, dated 2018).

In data set [1] the test system is high-fat diet-induced NASH in C57BL/6 mice. Put plainly: High fat diet-induced NAFLD/NASH in mice, prevention. Format: in vivo, mouse. The conditions noted are these: for liver score (NASH histology): 100 mg/kg/day from start of high-fat diet, vs vehicle (DHCQ P<0.001, HCQ P<0.05). On the procedure:
To evaluate the effect of DHCQ and HCQ on an animal model of non-alcoholic fatty liver disease (NAFLD) which can lead to the development of NASH, C57BL/6 mice (8 per group) were fed a high-fat “western-style” diet (60% caloric content from fat; Taconic) for 6 weeks. The mice were asymptomatic throughout this time, but were developing a pre- or early-disease state. The mice were treated, starting at the time of initiation of the high-fat diet, with HCQ (100 mg/kg/day), DHCQ (100 mg/kg/day), or vehicle control, to prevent the development of NAFLD and NASH. After 6 weeks of treatment with DHCQ, HCQ and vehicle (control) while on a high-fat diet, blood was collected and mice sacrificed for histological analysis of liver pathology. Livers from the mice in each treatment group were fixed, embedded, sectioned, stained with H&E, representative micrographs are presented in FIG. 7A (both 10× and 20× magnification), “liver scores” determined using an established scoring system for NASH (Brunt et al, Nonalcoholic steatohepatitis: a proposal for grading and staging the histological lesions, American J. Gastroenterology, 1999, 94(9):2467-74).

Data set [2] concerns retinal toxicity. Put plainly: Estimated retinal toxicity of long-term DHCQ therapy in humans. Format: in vivo, human. From the text: The estimated rate of retinal toxicity for long-term treatment with DHCQ is less than 50% of the currently reported rate for HCQ when used at a similar effective cumulative dose and over a similar time period. More specifically, as compared to the rates of retinal toxicity described by Marmor et al. for treatment with HCQ (Ophthalmology. 2011 February; 118(2):415-22), given a similar level of therapeutic activity and time period of dosing for both HCQ and DHCQ, DHCQ is estimated to provide less than 50% of retinal toxicity as compared to that with HCQ dosing. Thus, in patient populations analogous to that described by the […] and Marmor et al (Ophthalmology. 2011 February; 118(2):415-22) where the retinal toxicity rate approach 1% after 5 years, DHCQ therapy is estimated to reduce the retinal toxicity to less that 0.5% of treated individuals. Further, given conventional assumptions that retinal screening is justified as rates of toxicity approach 1%, the reduced cumulative rates of retinal toxicity associated with DHCQ therapy will substantially reduce the need for retinal toxicity screening to a single screening at 5 and 10 years, or entirely negate the need for screening.

Data set [3] has as its system human OA. The conditions noted are these: cited from earlier work.
The test system of data set [4] is retinal toxicity. The conditions noted are these: cited from earlier work.
Setting [5] is: 100 mg/kg/day, 6 weeks, vs vehicle.

Take `CC(CCCNCCO)Nc1ccnc2cc(Cl)ccc12` (centres unmarked) [DHCQ, desethylhydroxychloroquine]: the “liver score (NASH histology)” value in data set [1] (6 weeks) is listed as “statistically reduced”. Further, in data set [1] (setting [5]), the “serum ALT” value is “prevents and reduces abnormal elevations”; the “serum AST” value was “prevents and reduces abnormal elevations”. Besides, the “liver score, AST and ALT compared to HCQ” value in data set [1] (P<0.05 two-tailed T test) is on record as “statistically superior activity to HCQ”. For the same molecule, the “estimated retinal toxicity rate in treated individuals after 5 years” value in data set [2] (population where HCQ rate approaches 1% after 5 years) is given as below 0.5%. Moreover, the “estimated rate of retinal toxicity, as share of the reported rate for HCQ” value in data set [2] (similar effective cumulative dose and time period) is on record as “less than 50%”.
As to `CCN(CCO)CCCC(C)Nc1ccnc2cc(Cl)ccc12` (centres unmarked) [HCQ, hydroxychloroquine], the “liver score (NASH histology)” value in data set [1] (6 weeks) is reported as “statistically reduced”. Also, the “therapeutic benefit in erosive OA” value in data set [3] (case series) was “trends towards therapeutic benefit”. The “disease-modifying or pain-reducing activity in non-erosive OA” value in data set [3] (in vivo) is reported as “has not demonstrated disease-modifying or pain-reducing activity”. For the same molecule, the “prevalence of retinal toxicity” value in data set [4] (conventional doses, 400 mg/day common) is reported as 6.8 users per 1,000. For the same molecule, in data set [4] (in vivo), the “retinal toxicity after 5-7 years of use” value is reported as around 1%, the “risk of retinal toxicity after 7 years of usage or 1000 grams of total exposure” value is given as 5 times higher and the “risk of retinal toxicity after about 7 years of treatment” value is “approximately 1%”. In addition, the “incidence of retinal toxicity after 5 years” value in data set [4] (treated humans, conventional doses) is “approximately 1%”.
